Consider two molecules from patent US11185593B2, “Alkylating agent for alkylating target with driver oncogene mutation” (Chiba Prefecture, priority 2013, dated 2021).

Usually IC50 stands for the midpoint of a concentration-inhibition curve. High values mean lower potency, low ones higher potency.

Common to all, as to format: cell-based
For one assay, the system named is IMR-32 cells. Description: Cytotoxicity test, Cell Counting Kit-8, 72 hours. The conditions noted are these: Homo sapiens. As for the experimental part: (§1) The experiment was carried out in the same manner as that in the case of using KR12. The cells used in the experiment were Kelly cells, SK-N-SH cells, IMR-32 cells, SK-N-AS cells, and MDA-MB-231 cells. These cells were cultured in a DMEM, 10% FBS and 1% Pen/St medium, and in an RPMI1640, 10% FBS and 1% Pen/St medium, respectively. The cells of each type were seeded in each well of a 96-well plate at a cell density of 1000 cells/50 μl/well, and were then cultured under conditions of 37° C., 5% CO2, and saturated humidity for 24 hours. Thereafter, a reagent was diluted with a medium (final concentration: 1, 3, 10, 30, and 100 nM), and the diluted reagent was then added to the cultured cells in an amount of 50 μl/well, and the obtained mixture was then blended. The thus obtained mixture was cultured again under conditions of 37° C., 5% CO2, and saturated humidity for 72 hours. Thereafter, Cell Counting Kit-8 (DOJINDO) was added to the obtained culture in an amount of 10 μl/well, and the thus obtained mixture was blended and was then cultured under conditions of 37° C., 5% CO2, and saturated humidity for 2 hours. The absorbance was measured using Microplate Reader MTP-310 Lab (COLONA ELECTORIC), and the IC50 value was then calculated.
as §1, with “were” for “were Kelly cells, SK-N-SH cells,”, “cells” for “cells, SK-N-AS cells,”, “TGW” for “MDA-MB-231”
In general terms: Tetrazolium assays rely on reduction of a dye to a coloured formazan, in cell work by metabolically active cells.

A further assay has as its system TGW cells. Description: Cytotoxicity test, Cell Counting Kit-8, 72 hours. As for the experimental part: as §1, with “were” for “were Kelly cells, SK-N-SH cells,”, “cells” for “cells, SK-N-AS cells,”, “TGW” for “MDA-MB-231”
For assay [1], the system named is IMR-32 cells (MYCN, 25 copies). In words: Cell growth curve, Incucyte culture time-lapse microscope. The conditions noted are these: IMR-32, 1 to 100 nM, FIG. 32. As for the experimental part:
(§2) The cells were seeded in each well of a 96-well plate at a cell density of 1000 cells/50 μl/well, and were then cultured under conditions of 37° C., 5% CO2, and saturated humidity for 24 hours. On the following day, the culture media was replaced with a culture media, to which a DMSO control, or 1 nM, 3 nM, 10 nM, 30 nM or 100 nM MYCNA1 had been added, and the resulting cells were then observed under an Incucyte culture time-lapse microscope (Essen Instruments, Ann Arbor, Mich.) every 6 hours. A growth curve was produced from an imaging plate using Incucyte system (Essen Instruments, Ann Arbor, Mich.). The cells used in the experiment were neuroblastoma cell lines having MYCN amplification, IMR-32 cells (MYCN, 25 copies) and TGW cells (MYCN, 60 copies). The cells of each type were cultured in a DMEM, 10% FBS and 1% Pen/St medium, and in an RPMI1640, 10% FBS and 1% Pen/St medium, respectively.

Assay [2] has as its system TGW cells (MYCN, 60 copies). The description is as above. The conditions noted are these: 1 to 100 nM, FIG. 32. As to the method: as §2
Another assay relates to MCF7 cells. Description: Cytotoxicity test, Cell Counting Kit-8, 72 hours. The conditions noted are these: Homo sapiens, MCF7, breast cancer cells, 0.3 to 300 nM. As for the experimental part: as §1, with “MCF7 cells” for “Kelly cells, SK-N-SH cells, IMR-32 cells, SK-N-AS cells,”
The test system of the next assay is NB69 cells. In words: Cell growth measurement test, 72 hours. The conditions noted are these: Homo sapiens, NB69, without MYCN amplification, 0.3 to 300 nM.
A further assay concerns HT29 cells. Description: Cell growth measurement test, 72 hours. The conditions noted are these: Homo sapiens, HT-29, HT29, colon cancer cells, 0.3 to 300 nM.
Another assay concerns HDF cells. In words: Cell growth measurement test, 72 hours. The conditions noted are these: fibroblasts, 0.3 to 300 nM.

For `CC(=O)Nc1cn(C)c(C(=O)Nc2cc(C(=O)Nc3cc(C(=O)NCCC(=O)Nc4cn(C)c(C(=O)Nc5cc(C(=O)NCCCC(=O)Nc6cc(C(=O)Nc7cc(C(=O)NCCC(=O)Nc8cc(C(=O)Nc9ccc%10[nH]c(C(=O)N%11CC(CCl)c%12c%11cc(O)c%11ccccc%12%11)cc%10c9)n(C)c8)n(C)c7)n(C)c6)n(C)c5)n4)n(C)c3)n(C)c2)n1` (stereo not shown) [MYCNA1], the IC50 with IMR-32 cells (IMR-32 cells, 1 to 100 nM, FIG. 33) stood at 0.0097 µM; in the assay with TGW cells (TGW cells, 1 to 100 nM, FIG. 33), 0.0129 µM. The “cell growth (growth curve)” value in assay [1] and in assay [2] was “suppressed by MYCNA1 in a concentration-dependent manner” in each case.

Turning to `CC(=O)Nc1cn(C)c(C(=O)Nc2cn(C)c(C(=O)Nc3cn(C)c(C(=O)NCCC(=O)Nc4cn(C)c(C(=O)Nc5cc(C(=O)Nc6cc(C(=O)NCCCC(=O)Nc7cn(C)c(C(=O)Nc8cn(C)c(C(=O)Nc9cc(C(=O)NCCC(=O)Nc%10cc(C(=O)Nc%11ccc%12[nH]c(C(=O)N%13CC(CCl)c%14c%13cc(O)c%13ccccc%14%13)cc%12c%11)n(C)c%10)n(C)c9)n8)n7)n(C)c6)n(C)c5)n4)n3)n2)n1` (stereo not shown) [MYCNA3], the 50% inhibitory concentration (IC50) is 0.0011 µM with IMR-32 cells (IMR-32, IMR32, with MYCN amplification, 0.3 to 300 nM); 0.152 µM with MCF7 cells; 0.0037 µM in the assay on TGW cells (TGW, with MYCN amplification, 0.3 to 300 nM); 0.077 µM in the assay on NB69 cells; 0.24 µM in the assay on HT29 cells; 0.0566 µM in the assay with HDF cells.
